Tests used:
surinam grass = assay: Test B pre/postemergence surinam grass; format: in vivo, Brachiaria decumbens
How it was run: (§1)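 Test chemicals in a non-phytotoxic solvent mixture with surfactant were sprayed preemergence onto planted seeds and postemergence onto plants 2 to 18 cm tall (1- to 4-leaf stage). After twelve to sixteen days in a greenhouse, injury was visually rated against untreated controls from 0 (no effect) to 10 (complete control).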

corn = assay: Test B pre/postemergence corn; format: in vivo, Zea mays
How it was run: as §1

crabgrass = assay: Test B pre/postemergence crabgrass; format: in vivo, Digitaria sanguinalis
How it was run: as §1

winter wheat [1] = assay: Test E winter wheat; format: in vivo, Triticum aestivum; conditions: Postemergence, 0 to 100 scale, 0 is no effect, 100 is complete control
How it was run: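 Compounds formulated in non-phytotoxic solvent mixture with surfactant; for postemergence, sprayed on plants at 1- to 4-leaf stage grown in 60:40 sandy loam/greenhouse potting mix. Kept in greenhouse ~21 to 28 days, then visually rated against untreated controls.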

blackgrass = assay: Test E blackgrass; format: in vivo, Alopecurus myosuroides; conditions: Preemergence
green foxtail = assay: Test E green foxtail; format: in vivo, Setaria viridis; conditions: Preemergence
Italian ryegrass = assay: Test E Italian ryegrass; format: in vivo, Lolium multiflorum; conditions: Preemergence
winter wheat [2] = assay: Test E winter wheat; format: in vivo, Triticum aestivum; conditions: Preemergence
wild oat = assay: Test E wild oat; format: in vivo, Avena fatua; conditions: Preemergence
winter barley = assay: Test E winter barley; format: in vivo, Hordeum vulgare; conditions: Preemergence
bedstraw = assay: Test B pre/postemergence bedstraw; format: in vivo, Galium aparine
How it was run: as §1

[3] = Postemergence, Rate 125 g/ha, scale 0 to 10, 0 is no effect, 10 is complete control
[4] = Postemergence, Rate 250 g/ha, scale 0 to 10, 0 is no effect, 10 is complete control
[5] = Preemergence, Rate 62 g/ha, scale 0 to 10 (0 no effect, 10 complete control)
[6] = Preemergence, Rate 250 g/ha, scale of 0 to 10 where 0 is no effect and 10 is complete control
[7] = Preemergence, Rate 500 g/ha, scale of 0 to 10 where 0 is no effect and 10 is complete control
[8] = Rate 62 g/ha, Postemergence, scale of 0 to 10 where 0 is no effect and 10 is complete control
[9] = Rate 500 g/ha, Postemergence, scale 0 to 10, 0 no effect, 10 complete control
[10] = Rate 125 g/ha, 0 to 100 scale (0 no effect, 100 complete control)
[11] = Rate 500 g/ha, 0 to 100 scale (0 no effect, 100 complete control)
[12] = Postemergence, Rate 62 g/ha, scale of 0 to 10, 0 is no effect, 10 is complete control
[13] = Postemergence, Rate 500 g/ha, scale 0 to 10, 0 is no effect, 10 is complete control
[14] = Preemergence, Rate 125 g/ha, scale 0 to 10, 0 is no effect, 10 is complete control
[15] = Rate 250 g/ha, Postemergence, scale of 0 to 10 where 0 is no effect and 10 is complete control
[16] = Postemergence, Rate 500 g/ha, scale of 0 to 10 where 0 is no effect and 10 is complete control
[17] = Postemergence, Rate 62 g/ha, scale 0 to 10, 0 is no effect, 10 is complete control
[18] = Postemergence, Rate 125 g/ha, scale of 0 to 10 where 0 is no effect and 10 is complete control
[19] = Preemergence, Rate 125 g/ha, scale of 0 to 10 where 0 is no effect and 10 is complete control
[20] = Postemergence, Rate 250 g/ha, scale of 0 to 10, 0 is no effect, 10 is complete control

CC1CC1n1c(=O)on(C(=O)N(c2ccc(F)cc2)C(C)C)c1=O (centres unmarked) [Compound 371]
Plant response rating, B. signalgrass (surinam grass; [3]): 0 | Plant response rating, B. signalgrass (surinam grass; [4]): 3 | Plant response rating, B. signalgrass (surinam grass; [5]): 0 | B. signalgrass plant response rating (0 to 10 scale, 0 is no effect, 10 is complete control) (surinam grass; Preemergence, Rate 125 g/ha): 2 | B. signalgrass plant response rating (surinam grass; [6]): 2 | B. signalgrass plant response rating (surinam grass; [7]): 4 | B. signalgrass plant response rating (surinam grass; [8]): 0 | Plant response rating, B. signalgrass (surinam grass; [9]): 6 | Plant response rating, Corn (corn; [3]): 0 | Plant response rating, Corn (corn; [4]): 0 | Plant response rating, Corn (corn; [5]): 0 | Corn plant response rating (0 to 10 scale) (corn; Preemergence, Rate 125 g/ha): 0 | Corn plant response rating (corn; [6]): 2 | Corn plant response rating (corn; [7]): 7 | Corn plant response rating (corn; [8]): 0 | Plant response rating, Corn (corn; [9]): 1 | Plant response rating, Crabgrass (crabgrass; [3]): 4 | Plant response rating, Crabgrass (crabgrass; [4]): 8 | Plant response rating, Crabgrass (crabgrass; [5]): 8 | Crabgrass plant response rating (0 to 10 scale) (crabgrass; Preemergence, Rate 125 g/ha): 10 | Crabgrass plant response rating (crabgrass; [6]): 10 | Crabgrass plant response rating (crabgrass; [7]): 10 | Crabgrass plant response rating (crabgrass; [8]): 3 | Plant response rating, Crabgrass (crabgrass; [9]): 9 | Plant response rating, Wheat (winter) (winter wheat [1]; Rate 125 g/ha): 70 | Plant response rating, Wheat (winter) (winter wheat [1]; Rate 250 g/ha): 65 | Plant response rating, Wheat (winter) (winter wheat [1]; Rate 500 g/ha): 80 | Plant response rating, Blackgrass (blackgrass; [10]): 85 | Plant response rating, Blackgrass (blackgrass; Rate 250 g/ha, 0 to 100 scale): 100 | Plant response rating, Blackgrass (blackgrass; [11]): 100 | Plant response rating, Green foxtail (green foxtail; [10]): 35 | Plant response rating, Green foxtail (green foxtail; Rate 250 g/ha, 0 to 100 scale): 60 | Plant response rating, Green foxtail (green foxtail; [11]): 85 | Plant response rating, I. Ryegrass (Italian ryegrass; [10]): 60 | Plant response rating, I. Ryegrass (Italian ryegrass; Rate 250 g/ha, 0 to 100 scale): 70 | Plant response rating, I. Ryegrass (Italian ryegrass; [11]): 90 | Plant response rating, Wheat (winter) (winter wheat [2]; [10]): 60 | Plant response rating, Wheat (winter) (winter wheat [2]; Rate 250 g/ha, 0 to 100 scale): 60 | Plant response rating, Wheat (winter) (winter wheat [2]; [11]): 65 | Plant response rating, Wild oat (wild oat; [10]): 70 | Plant response rating, Wild oat (wild oat; Rate 250 g/ha, 0 to 100 scale): 85 | Plant response rating, Wild oat (wild oat; [11]): 90 | Plant response rating, Barley (winter) (winter barley; [10]): 40 | Plant response rating, Barley (winter) (winter barley; Rate 250 g/ha, 0 to 100 scale, 0 no effect, 100 complete control): 60 | Plant response rating, Barley (winter) (winter barley; [11]): 70

CC(C)N(C(=O)n1oc(=O)n(CC2CCC2)c1=O)c1ccc(Cl)cc1 [Compound 550]
Bedstraw plant response rating (bedstraw; [12]): 0 | Bedstraw plant response rating (bedstraw; [3]): 0 | Plant response rating, Bedstraw (bedstraw; [13]): 0 | Bedstraw plant response rating (bedstraw; [5]): 0 | Bedstraw plant response rating (bedstraw; [14]): 0 | Bedstraw plant response rating (0 to 10 scale) (bedstraw; Preemergence, Rate 250 g/ha): 0 | Bedstraw plant response rating (bedstraw; [7]): 3 | Plant response rating, Bedstraw (bedstraw; [15]): 0 | B. signalgrass plant response rating (surinam grass; [12]): 0 | B. signalgrass plant response rating (surinam grass; [3]): 0 | Plant response rating, B. signalgrass (surinam grass; [13]): 2 | B. signalgrass plant response rating (surinam grass; [5]): 6 | B. signalgrass plant response rating (surinam grass; [14]): 9 | B. signalgrass plant response rating (0 to 10 scale, 0 is no effect, 10 is complete control) (surinam grass; Preemergence, Rate 250 g/ha): 9 | B. signalgrass plant response rating (surinam grass; [7]): 10 | Plant response rating, B. signalgrass (surinam grass; [15]): 2 | Corn plant response rating (corn; [12]): 0 | Corn plant response rating (corn; [3]): 0 | Plant response rating, Corn (corn; [13]): 2 | Corn plant response rating (corn; [5]): 0 | Corn plant response rating (corn; [14]): 0 | Corn plant response rating (0 to 10 scale) (corn; Preemergence, Rate 250 g/ha): 0 | Corn plant response rating (corn; [7]): 0 | Plant response rating, Corn (corn; [15]): 0 | Crabgrass plant response rating (crabgrass; [3]): 7 | Crabgrass plant response rating (crabgrass; [5]): 4 | Crabgrass plant response rating (crabgrass; [14]): 10 | Crabgrass plant response rating (0 to 10 scale) (crabgrass; Preemergence, Rate 250 g/ha): 10 | Crabgrass plant response rating (crabgrass; [7]): 10 | Plant response rating, Crabgrass (crabgrass; [15]): 10

CC(C)N(C(=O)n1oc(=O)n(CCc2ccccc2)c1=O)c1ccccc1 [Compound 567]
Bedstraw plant response rating (bedstraw; [12]): 0 | Bedstraw plant response rating (bedstraw; [3]): 0 | Plant response rating, Bedstraw (bedstraw; [16]): 0 | Bedstraw plant response rating (bedstraw; [5]): 0 | Bedstraw plant response rating (bedstraw; [14]): 0 | Bedstraw plant response rating (0 to 10 scale) (bedstraw; Preemergence, Rate 250 g/ha): 0 | Bedstraw plant response rating (bedstraw; [7]): 0 | Plant response rating, Bedstraw (bedstraw; [15]): 0 | B. signalgrass plant response rating (surinam grass; [12]): 0 | B. signalgrass plant response rating (surinam grass; [3]): 0 | Plant response rating, B. signalgrass (surinam grass; [16]): 0 | B. signalgrass plant response rating (surinam grass; [5]): 0 | B. signalgrass plant response rating (surinam grass; [14]): 0 | B. signalgrass plant response rating (0 to 10 scale, 0 is no effect, 10 is complete control) (surinam grass; Preemergence, Rate 250 g/ha): 2 | B. signalgrass plant response rating (surinam grass; [7]): 9 | Plant response rating, B. signalgrass (surinam grass; [15]): 0 | Corn plant response rating (corn; [12]): 0 | Corn plant response rating (corn; [3]): 0 | Plant response rating, Corn (corn; [16]): 0 | Corn plant response rating (corn; [5]): 0 | Corn plant response rating (corn; [14]): 0 | Corn plant response rating (0 to 10 scale) (corn; Preemergence, Rate 250 g/ha): 0 | Corn plant response rating (corn; [7]): 5 | Plant response rating, Corn (corn; [15]): 0 | Crabgrass plant response rating (crabgrass; [12]): 3 | Crabgrass plant response rating (crabgrass; [3]): 7 | Plant response rating, Crabgrass (crabgrass; [16]): 8 | Crabgrass plant response rating (crabgrass; [5]): 0 | Crabgrass plant response rating (crabgrass; [14]): 9 | Crabgrass plant response rating (0 to 10 scale) (crabgrass; Preemergence, Rate 250 g/ha): 9 | Crabgrass plant response rating (crabgrass; [7]): 9 | Plant response rating, Crabgrass (crabgrass; [15]): 7

C#CC(C)n1c(=O)on(C(=O)N(c2ccccc2)C(C)C)c1=O (centres unmarked) [Compound 609]
Plant response rating, Bedstraw (bedstraw; [17]): 0 | Plant response rating, Bedstraw (bedstraw; [18]): 0 | Bedstraw plant response rating (bedstraw; [5]): 4 | Bedstraw plant response rating (bedstraw; [19]): 8 | Bedstraw plant response rating (0 to 10 scale) (bedstraw; Preemergence, Rate 250 g/ha): 8 | Plant response rating, B. signalgrass (surinam grass; [17]): 0 | Plant response rating, B. signalgrass (surinam grass; [18]): 1 | B. signalgrass plant response rating (surinam grass; [20]): 5 | Plant response rating, B. signalgrass (surinam grass; [16]): 8 | B. signalgrass plant response rating (surinam grass; [5]): 3 | B. signalgrass plant response rating (surinam grass; [19]): 6 | B. signalgrass plant response rating (0 to 10 scale, 0 is no effect, 10 is complete control) (surinam grass; Preemergence, Rate 250 g/ha): 9 | B. signalgrass plant response rating (surinam grass; [7]): 10 | Plant response rating, Corn (corn; [17]): 0 | Plant response rating, Corn (corn; [18]): 0 | Corn plant response rating (corn; [20]): 2 | Plant response rating, Corn (corn; [16]): 7 | Corn plant response rating (corn; [5]): 2 | Corn plant response rating (corn; [19]): 2 | Corn plant response rating (0 to 10 scale) (corn; Preemergence, Rate 250 g/ha): 6 | Plant response rating, Corn (corn; [7]): 9 | Plant response rating, Crabgrass (crabgrass; [17]): 5 | Plant response rating, Crabgrass (crabgrass; [18]): 9 | Crabgrass plant response rating (crabgrass; [20]): 9 | Crabgrass plant response rating (crabgrass; [5]): 7 | Crabgrass plant response rating (crabgrass; [19]): 7 | Plant response rating, Crabgrass (crabgrass; [7]): 9

Source: patent publication US6737383B1, “Herbicidal oxadiazolidines” (priority 1999, dated 2004)
